The values that follow come from PMC9579956 (RSC Medicinal Chemistry, 2022).

Structures are written as SMILES. Values joined by “and” are separate entries in the source; they are usually repeats but may differ in a detail not shown here. Equal entries are not always repeated.

For test [1], the target named is T1, Mycobacterium thermoresistible (Mtr) LpqY (Mycolicibacterium thermoresistibile, UniProt G7CES0). Type of test: binding. Particulars: for Hit validation Binding score: MST re-evaluation of hits against LpqY; for Validation binding score (MST): quadruplicate, new batch of LpqY.
T1 sequence (G7CES0 29-471): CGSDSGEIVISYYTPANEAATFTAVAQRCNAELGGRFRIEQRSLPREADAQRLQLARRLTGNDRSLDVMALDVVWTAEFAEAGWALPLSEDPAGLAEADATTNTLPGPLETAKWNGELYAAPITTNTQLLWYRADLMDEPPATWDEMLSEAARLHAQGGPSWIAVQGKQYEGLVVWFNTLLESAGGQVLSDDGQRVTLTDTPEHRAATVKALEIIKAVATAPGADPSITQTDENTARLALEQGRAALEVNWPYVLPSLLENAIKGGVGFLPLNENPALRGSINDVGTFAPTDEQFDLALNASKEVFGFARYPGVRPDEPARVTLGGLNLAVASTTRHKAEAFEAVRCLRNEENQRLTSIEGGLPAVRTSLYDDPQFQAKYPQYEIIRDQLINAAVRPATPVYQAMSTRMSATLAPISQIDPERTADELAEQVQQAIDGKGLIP
Test [2] concerns the target T1, Mycobacterium thermoresistible (Mtr) LpqY. It counts as binding. Particulars: for Pathogen Box screen signal/noise ratio: single dose MST screen against LpqY.

`COc1ccc(OC(C)C(=O)Nc2ccc(Cl)cc2C)cc1` (stereo not shown) [MMV202458, N-(4-chloro-2-methylphenyl)-2-(4-methoxyphenoxy)propanamide]: in test [1], the “Hit validation Binding score” value came to 6.3; the “Validation binding score (MST)” value is 6.3 and > 5. Further, in test [2] (compound 100 μM, LpqY 500 nM, 10% DMSO, duplicate), the “Screen signal/noise ratio (MST S/N)” value was determined as 5.5. The “Pathogen Box screen signal/noise ratio” value in test [2] was 5.5. Take `OC[C@H]1O[C@H](O[C@H]2O[C@H](CO)[C@@H](O)[C@H](O)[C@H]2O)[C@H](O)[C@@H](O)[C@@H]1O` [Trehalose, α-D-glucopyranosyl-α-D-glucopyranoside, reference compound]: in test [1], the “Hit validation Binding score” value was determined as 8.3 and the “Validation binding score (MST)” value is 8.3. For the compound `Cc1ccc(C(=O)Nc2ccc(S(=O)(=O)O)c3cc(S(=O)(=O)O)cc(S(=O)(=O)O)c23)cc1NC(=O)c1cccc(NC(=O)Nc2cccc(C(=O)Nc3cc(C(=O)Nc4ccc(S(=O)(=O)O)c5cc(S(=O)(=O)O)cc(S(=O)(=O)O)c45)ccc3C)c2)c1` [MMV637953], the “Pathogen Box screen signal/noise ratio” value in test [2] is on record as 0.7.

Turning to `Cc1cc(OCC(=O)Nc2ccc(C(C)C)cc2)n(C)c(=O)c1C#N` [MMV1198433], the “Pathogen Box screen signal/noise ratio” value in test [2] stood at 1.0.

For `CC(=O)Nc1ccc(NC(=O)c2cc(-c3cc(Cl)ccc3O)[nH]n2)cc1` [MMV676380], the “Pathogen Box screen signal/noise ratio” value in test [2] is given as 1.2. Take `CNC(=O)C1Cc2ccccc2N1C(=O)Cc1ccc(F)cc1` (stereo not shown) [MMV188296]: the “Pathogen Box screen signal/noise ratio” value in test [2] is 1.9. For the compound `Nc1c2c(nc3sc4c(c13)CCCC4)CCCC2` [MMV676588], the “Pathogen Box screen signal/noise ratio” value in test [2] came to 0.449. Consider `CCCCCCCCCCCCCCCCOP(=O)([O-])OCC[N+](C)(C)C` [MMV688990], for which, in test [2], the “Pathogen Box screen signal/noise ratio” value was 0.7. On to `O=C(NC1CC1)c1ccc(CSCc2ccccc2Cl)o1` [MMV007803], for which, in test [2], the “Pathogen Box screen signal/noise ratio” value turned out to be 0.148.

In the case of `O=C(NCCN1CCCC1)c1cc(NCCCCN2CCC(F)(F)CC2)nc2ccc(Cl)cc12` [MMV667494], the “Pathogen Box screen signal/noise ratio” value in test [2] stood at 0.344. The same measure, in the same setting: under `O=C(NC1CCN(c2ccnc3ccccc23)C1)c1cccc(C(F)(F)F)c1` (stereo not shown) [MMV023388] stands -0.0357; under `CC(C)(C)n1nc(Cc2cccc3ccccc23)c2c(N)ncnc21` [MMV676599], 0.6; under `CCS(=O)(=O)N(Cc1ccco1)Cc1cc2ccc(C)cc2nc1O` [MMV676398], -0.167. On to `COc1ccc(-c2nc(-c3cccc(NC(=O)Cc4ccc(F)cc4)c3)no2)cc1OC` [MMV676571], for which the “Pathogen Box screen signal/noise ratio” value in test [2] is recorded as 3.5.

As for `COc1ccc(N(CCc2cccc(C)n2)C(C)=O)cc1` [MMV675995], the “Pathogen Box screen signal/noise ratio” value in test [2] worked out at 0.318.

Consider `O[C@@H](c1cc(C(F)(F)F)nc2c(C(F)(F)F)cccc12)[C@H]1CCCCN1` [MMV000016], for which the “Pathogen Box screen signal/noise ratio” value in test [2] came to 1.8. Consider `Cc1cc(NC(=O)c2ccc(Oc3ccc(Cl)cc3O)o2)no1` [MMV688955], for which the “Pathogen Box screen signal/noise ratio” value in test [2] is reported as 0.4. On the same count and under the same terms, under `Cc1[nH]c2cc(F)cc(F)c2c(=O)c1-c1ccc(Oc2ccc(OC(F)(F)F)cc2)cc1` [MMV671636] stands 0.545; under `CNc1snc(C)c1C(=O)NCCOc1ccc(OC)cc1` [MMV688554], 0.8; under `Cc1nn2c(O)c3c(nc2c1-c1ccc(F)cc1)CCCC3` [MMV099637], 3.3. With `O=C(C1CCCCC1)N1CC(=O)N2CCc3ccccc3C2C1` (stereo not shown) [MMV002529], in test [2], the “Pathogen Box screen signal/noise ratio” value was determined as 0.167. Still for that read-out and setting: to `COc1cccc(OC)c1C(=O)Nc1ccc(Cl)c(-c2nc3ccccc3s2)c1` [MMV676472] belongs 0.348. On to `CC(=O)NC[C@@H]1CN(c2ccc(N3CCOCC3)c(F)c2)C(=O)O1` [MMV687803], for which, in test [2], the “Pathogen Box screen signal/noise ratio” value is 2.0.

For the compound `COc1ccc2nc(C)cc(OCC(=O)NCc3ccccc3)c2c1` [MMV687189], in test [2], the “Pathogen Box screen signal/noise ratio” value is recorded as 0.0536.

Take `O=[N+]([O-])c1cn2c(n1)OC[C@@H](OCc1ccc(OC(F)(F)F)cc1)C2` [MMV688755]: the “Pathogen Box screen signal/noise ratio” value in test [2] was 0.4. On the same count and under the same terms, to `c1ccc2c(c1)CN(CC1CC1)CC1(CCN(Cc3c[nH]c4cnccc34)CC1)O2` [MMV023183] belongs 2.8; to `Nc1ncc(Br)cc1-c1nc2cc(Cl)cnc2[nH]1` [MMV676358], 4.8. Turning to `CC1CC1C(=O)NC1CCN(CC2(c3ccccc3)CCCCC2)CC1` (stereo not shown) [MMV020120], the “Pathogen Box screen signal/noise ratio” value in test [2] is 1.1. `CNC1C(OC2C(OC3C(O)C(O)C(NC(=N)N)C(O)C3NC(=N)N)OC(C)C2(O)C=O)OC(CO)C(O)C1O` (stereo not shown) [MMV688994]: in test [2], the “Pathogen Box screen signal/noise ratio” value is reported as 0.56. Take `COc1ccc(-c2cnc3ccc(NCc4ccc(S(N)(=O)=O)cc4)nn23)cn1` [MMV010545]: the “Pathogen Box screen signal/noise ratio” value in test [2] is on record as 0.463. On to `CN1CCN(c2nccc3nc(-c4ccc(F)c(F)c4)[nH]c23)CC1` [MMV676260], for which, in test [2], the “Pathogen Box screen signal/noise ratio” value stood at 0.635.

`N#CCN(CCCCN1CCN(c2ccc(F)cc2)CC1)C(=O)OCc1ccccc1` [MMV675997]: the “Pathogen Box screen signal/noise ratio” value in test [2] is 0.322. For the compound `CS(=O)(=O)Cc1nc2ccccc2oc1=O` [MMV553002], the “Pathogen Box screen signal/noise ratio” value in test [2] amounted to 3.2. For the compound `CC(=O)NCC1CN(c2ccc(-c3ccc(CNCc4cn[nH]n4)cc3)c(F)c2)C(=O)O1` (stereo not shown) [MMV688327], the “Pathogen Box screen signal/noise ratio” value in test [2] worked out at 0.344.

With `CC1CCCN(C(=O)C(C)Nc2cc(Cl)ccc2N2CCOCC2)C1` (stereo not shown) [MMV020388], the “Pathogen Box screen signal/noise ratio” value in test [2] is listed as 0.556.

On to `Cn1ccnc1CNCCS(=O)(=O)c1cccc(Nc2ccc(-c3cccc(F)c3)cn2)c1` [MMV688466], for which the “Pathogen Box screen signal/noise ratio” value in test [2] came to 0.0.

`O=S(=O)(c1ccc(Cl)cc1)N1CCN(C(=S)NCc2ccco2)CC1` [MMV000858]: the “Pathogen Box screen signal/noise ratio” value in test [2] is listed as 2.2. Consider `N=C(N)c1ccc(OCCCCCOc2ccc(C(=N)N)cc2)cc1` [MMV000062], for which the “Pathogen Box screen signal/noise ratio” value in test [2] is 0.3. With `Cc1cc(C)n2nc(C(=O)Nc3cc(C(F)(F)F)ccc3N3CCOCC3)nc2n1` [MMV019087], the “Pathogen Box screen signal/noise ratio” value in test [2] was 1.2. As to `Oc1c(I)cc(I)c2cccnc12` [MMV002817], the “Pathogen Box screen signal/noise ratio” value in test [2] stood at 0.152.

As to `CCCCc1ccc(C(=O)Nc2nccc3ccccc23)nc1` [MMV687254], the “Pathogen Box screen signal/noise ratio” value in test [2] is 0.0729. Regarding `O=C(C(Cc1c[nH]c2ccccc12)NS(=O)(=O)c1ccc(Cl)cc1)N1CCCCC1` (stereo not shown) [MMV085210], in test [2], the “Pathogen Box screen signal/noise ratio” value is reported as 2.9.

Take `CC(C)(C)C(O)C(Oc1ccc(-c2ccccc2)cc1)n1cncn1` (stereo not shown) [MMV688942]: the “Pathogen Box screen signal/noise ratio” value in test [2] is recorded as 0.451. Take `COc1ccc(C2=NN(C3CCCCCC3)C(=O)C2(C)C)cc1OCc1ccccn1` [MMV688360]: the “Pathogen Box screen signal/noise ratio” value in test [2] is 1.5. On the same count and under the same terms, under `Cc1cc(NCCc2ccccc2)nc(NC(=N)Nc2ccc(Cl)cc2)n1` [MMV021660] stands 1.6; under `CNCCC(Oc1ccc(C(F)(F)F)cc1)c1ccccc1` (stereo not shown) [MMV001561], 0.9; under `COc1ccc(OC)c(NCc2ccc3nc(N)nc(N)c3c2Cl)c1` [MMV675968], 5.0. Take `CC(C)n1ncc2c(C(=O)NCC(c3cccs3)N3CCOCC3)cc(-c3ccccc3)nc21` (stereo not shown) [MMV676406]: the “Pathogen Box screen signal/noise ratio” value in test [2] is on record as 2.6.
